ChEMBL document CHEMBL1201862, “PubChem BioAssay data set” (2004)
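Dose response: 5 concentrations. Exposure: 48 h. Format: 96-well plates. Endpoint: linear interpolation; highest concentration if not reached. The concentration for 50% growth inhibition is given as GI50.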 Calls of active or inactive are those of the source. No stated cut-off is given here; in the data, active = GI50 up to about 1.1 µM and inactive = higher.

Columns and labels:
Assay in all cases: growth of human tumour cells (NCI), 48 h
[1] = test system: DU-145
[2] = test system: UACC-257
[3] = test system: SW-620
[4] = test system: NCI-H23
[5] = test system: LOX IMVI
[6] = test system: T47D
[7] = test system: HCC 2998
[8] = test system: Malme-3M
[9] = test system: MCF7
[10] = test system: SF-295
[11] = test system: SK-MEL-28
[12] = test system: SK-MEL-2
[13] = test system: Hs-578T
[14] = test system: UO-31
[15] = test system: OVCAR-8
[16] = test system: U-251
[17] = test system: M14
[18] = test system: TK-10
[19] = test system: COLO 205
[20] = test system: MOLT-4

Row | Compound | GI50 [1] | GI50 [2] | GI50 [3] | GI50 [4] | GI50 [5] | GI50 [6] | GI50 [7] | GI50 [8] | GI50 [9] | GI50 [10] | GI50 [11] | GI50 [12] | GI50 [13] | GI50 [14] | GI50 [15] | GI50 [16] | GI50 [17] | GI50 [18] | GI50 [19] | GI50 [20]
1 | CC(C)(C)c1cc(OCc2nn3c(Cc4ccccc4)nnc3s2)c(Cl)cc1OCc1nn2c(Cc3ccccc3)nnc2s1 | 30.5 µM (inactive) | 23.6 µM (inactive) | 43.6 µM (inactive) | 39.1 µM (inactive) | 37.1 µM (inactive) | 3.43 µM (inactive) | 53.6 µM (inactive) | 12 µM (inactive) | 22.5 µM (inactive) | 12.8 µM (inactive) | 36.2 µM (inactive) | 30.8 µM (inactive) | > 100 µM (inactive) | 31.1 µM (inactive) | 25.3 µM (inactive) | 21.8 µM (inactive) | 29.7 µM (inactive) | 34.4 µM (inactive) | 24.7 µM (inactive) | 8.93 µM (inactive)
2 | CC1CN=C(N(C(=O)Nc2ccc(Cl)cc2)c2cccc(Cl)c2)S1 (stereo not given) | 46.8 µM (inactive) | 28.2 µM (inactive) | 41.9 µM (inactive) | 35.1 µM (inactive) | 21.6 µM (inactive) | 13 µM (inactive) | 20.9 µM (inactive) | 59 µM (inactive) | 34.7 µM (inactive) | 20.1 µM (inactive) | 28.6 µM (inactive) | 16.6 µM (inactive) | 50.1 µM (inactive) | 37.4 µM (inactive) | 36.9 µM (inactive) | 70.3 µM (inactive) | 7.24 µM (inactive) | 15 µM (inactive) | 18.5 µM (inactive) | > 10 µM (inactive)
3 | COc1ccc2[nH]c3c(c2c1)CCc1c(OC)cccc1-3 | > 100 µM (inactive) | > 100 µM (inactive) | > 100 µM (inactive) | > 100 µM (inactive) | > 100 µM (inactive) | 14.5 µM (inactive) | > 100 µM (inactive) | 75.2 µM (inactive) | > 100 µM (inactive) | > 100 µM (inactive) | > 100 µM (inactive) | > 100 µM (inactive) | 39.7 µM (inactive) | > 100 µM (inactive) | > 100 µM (inactive) | 28.8 µM (inactive) | > 100 µM (inactive) | > 100 µM (inactive) | > 100 µM (inactive) | 29.9 µM (inactive)
4 | CN(CCc1ccc(Cl)c(Cl)c1)[C@H]1CCCC[C@H]1N1CCCC1 | > 100 µM (inactive) | > 100 µM (inactive) | > 100 µM (inactive) | > 100 µM (inactive) | > 100 µM (inactive) | > 100 µM (inactive) | > 100 µM (inactive) | > 100 µM (inactive) | > 100 µM (inactive) | > 100 µM (inactive) | > 100 µM (inactive) | > 100 µM (inactive) | > 100 µM (inactive) | > 100 µM (inactive) | > 100 µM (inactive) | > 100 µM (inactive) | > 100 µM (inactive) | > 100 µM (inactive) | > 100 µM (inactive) | > 100 µM (inactive)
5 | CN(C(=O)c1ccncc1)c1ccccc1 | > 100 µM (inactive) | > 100 µM (inactive) | > 100 µM (inactive) | > 100 µM (inactive) | > 100 µM (inactive) | > 100 µM (inactive) | > 100 µM (inactive) | > 100 µM (inactive) | > 100 µM (inactive) | > 100 µM (inactive) | > 100 µM (inactive) | > 100 µM (inactive) | > 100 µM (inactive) | > 100 µM (inactive) | > 100 µM (inactive) | > 100 µM (inactive) | > 100 µM (inactive) | > 100 µM (inactive) | > 100 µM (inactive) | > 100 µM (inactive)
6 | O=C1Nc2ccccc2/C1=C/c1c(Cl)[nH]c2ccc(O)cc12 | 1.78 µM (inactive) | 10.6 µM (inactive) | 1.18 µM (inactive) | 2.63 µM (inactive) | 2.75 µM (inactive) | 3.02 µM (inactive) | 11.7 µM (inactive) | 0.736 µM (active) | 1.17 µM (inactive) | 2.79 µM (inactive) | 7.05 µM (inactive) | 1.55 µM (inactive) | 3.99 µM (inactive) | 3.9 µM (inactive) | 2.93 µM (inactive) | 1.33 µM (inactive) | 1.36 µM (inactive) | 10.7 µM (inactive) | 2.07 µM (inactive) | 1 µM (active)
7 | CCCCCCCCOC(=O)C12Oc3ccc(-c4ccc5c(c4O)C(=O)C4=C(O)CC(C)C(O)C4(C(=O)OCCCCCCCC)O5)c(O)c3C(=O)C1=C(O)CC(C)C2O (stereo not given) | 34.4 µM (inactive) | 34.8 µM (inactive) | 6.85 µM (inactive) | 10.2 µM (inactive) | 25.5 µM (inactive) | 16.2 µM (inactive) | 28.9 µM (inactive) | 32.4 µM (inactive) | 11.4 µM (inactive) | 8.41 µM (inactive) | 18.2 µM (inactive) | 7.87 µM (inactive) | 11.6 µM (inactive) | 24.7 µM (inactive) | 9.46 µM (inactive) | 4.06 µM (inactive) | 26.2 µM (inactive) | 15.5 µM (inactive) | 20.9 µM (inactive) | 16.3 µM (inactive)
8 | COC(=O)[C@H](CCSC)NC(=O)c1ccc(CNC(=O)/C=C/c2cccc(Oc3ccccc3)c2)cc1 | > 100 µM (inactive) | 11.5 µM (inactive) | 77.4 µM (inactive) | 42 µM (inactive) | 51.8 µM (inactive) | 0.27 µM (active) | 28.5 µM (inactive) | 18.8 µM (inactive) | 38.6 µM (inactive) | > 78.5 µM (inactive) | 17.4 µM (inactive) | 14.8 µM (inactive) | 59.2 µM (inactive) | 42.9 µM (inactive) | > 100 µM (inactive) | > 100 µM (inactive) | 13.5 µM (inactive) | > 45.3 µM (inactive) | 21.9 µM (inactive) | 8.83 µM (inactive)
